These are literature values, as cited in patent publication US6372499B1, “Polymeric complexes for the transfection of nucleic acids, with residues causing the destabilisation of cell membranes” (I.D.M. Immuno-Designed Molecules, priority 1996, dated 2002).

For data set [1] the following is noted: persons, daily dose of 300 mg per day, after a few days.
Another data set has as its system cells. The following applies: after a few hours.

For the molecule `CCN(CC)CCCC(C)Nc1ccnc2cc(Cl)ccc12` (stereo not drawn) [chloroquine], the plasma concentration result in data set [1] is on record as “about 0.7 μM”. Besides, in the data set with cells, the “intracellular concentration relative to the concentration in the medium” value is reported as “more than 100 times higher”. Further, the intracellular concentration result in the data set on cells (initial concentration 100 μM) is listed as “exceed 10 mM”.
